For 3 compounds, microsomal CLint results are on record in ChEMBL document CHEMBL6103664, “Novel Pyrimidinyl Sulfonamide Derivatives as GPR17 Modulators” (ACS Med Chem Lett, 2025).

What is called microsomal CLint is a measure of how fast metabolising enzymes remove a compound, apart from limits set by blood flow. A lower microsomal CLint goes with greater metabolic stability.

What all share (assay type): ADME, Microsome
Holding throughout (settings): time 55 min

Data set [1] can be described thus: Clearance in mouse microsomes assessed per mg protein at 1 uM preincubated for 10 mins followed by NADPH addition and measured after 1 to 45 mins by LC-MS/MS analysis.
The nature of data set [2]: Clearance in rat microsomes assessed per mg protein at 1 uM preincubated for 10 mins followed by NADPH addition and measured after 1 to 45 mins by LC-MS/MS analysis.
A short description of data set [3]: Clearance in human microsomes assessed per mg protein at 1 uM preincubated for 10 mins followed by NADPH addition and measured after 1 to 45 mins by LC-MS/MS analysis.

As for `COc1nc(NS(=O)(=O)c2c[nH]c(-c3ccccc3)c2)nc(OC)c1OCC(F)F`, the microsomal CLint at 1 µM in data set [1] was determined as 21 µL/min/mg; in data set [2], 81 µL/min/mg; in data set [3], 10 µL/min/mg.
For the compound `COc1nc(NS(=O)(=O)c2c[nH]c(-c3nccs3)c2)nc(OC)c1OC(F)F`, the figures for the microsomal CLint at 1 µM in data set [1], in data set [2] and in data set [3] were 10 µL/min/mg, 50 µL/min/mg and 10 µL/min/mg, respectively.
On to `COc1nc(NS(=O)(=O)c2c[nH]c(-c3ncccc3F)c2)nc(OC)c1OCCF`, for which the microsomal CLint at 1 µM in data set [1] worked out at 12 µL/min/mg; in data set [2] it was 32 µL/min/mg; in data set [3], 10 µL/min/mg.
